# Measurements taken from patent publication US9840470B2, “Targeting GLI proteins in human cancer by small molecules” (The Regents of the University of California, priority 2013, dated 2017).
# Tests used:
# melanoma MelJuso = assay: In vivo efficacy, mouse xenograft model (melanoma MelJuso); conditions: for tumor growth: 50 mg/kg body weight i.p. daily for 14 days, from 13 days after inoculation; for tumor weight (FIG. 1): melanoma MelJuso xenograft, after treatment
# Experimental: (§1) The administered compounds were tested in vivo in the mouse xenograft model bearing human cancer cells. Briefly, female athymic nude mice strain NCRNU-M (5-10 weeks old, 20-25 grams in weight; Taconic, Germantown, N.Y.) was maintained in pathogen-free conditions. Three human cancer cell lines: NSCLC A549, melanoma MelJuso, and mesothelioma MS-1 were used. Five or ten mice were used in each group and injected s.c. with 3×10^6 cancer cells in the dorsal area in a volume of 100 μl. After inoculation, human cancer cells were allowed to grow in mice for 10-13 days to become visible tumor nodules. Animals were then injected with a compound of the embodiments at a dose of 50 mg/kg body weight (1 mg/mouse per day). Vehicle alone was used as control. The compounds and controls were adjusted in 40 ul volume for i.p. injection in the abdomens of the mice. Injections were performed daily around the same time for 14 days. Tumors were allowed to grow for 1-2 additional weeks after completion of the compound treatments. Tumor size was measured every three to four days, and tumor volumes were calculated using width (x) and length (y) (x^2y/2, where x<y). Throughout this period, general toxicity of the treatments was also monitored by measuring body weight of the mice. Data was presented as mean values (±S.D.).
# In vivo efficacy study of Compounds 1, 2, 4, and 6 were performed using a Mouse Xenograft Model (Melanoma MelJuso). Mice were injected s.c. with 3×10^6 cells in the dorsal area in a volume of 100 μl. 13 days after inoculation, the mice started receiving treatments with the administered compound at a dose of 50 mg/kg body weight daily for 14 days (n=10). Vehicle alone was used as control (n=10). The administered compounds and vehicle were adjusted in a volume of 40 μl for i.p. injection in the abdomens of the mice. Tumor size and tumor volumes were calculated as described above.
# mesothelioma MS-1 = assay: In vivo efficacy, mouse xenograft model (mesothelioma MS-1); conditions: 50 mg/kg body weight i.p. daily for 14 days, from ten days after inoculation
# Experimental: as §1, with “Tumors were allowed to grow for 1-2 additional weeks after completion of the compound treatments.” left out, “Data was presented as mean values (±S.D.).” left out
# In vivo efficacy study of Compounds 1 and 4 were performed using a Mouse Xenograft Model (Mesothelioma MS-1). […] Tumor sizes was measured twice weekly until the completion of the experiments. […]
# NSCLC A549 = assay: In vivo efficacy, mouse xenograft model (lung cancer A549); conditions: 50 mg/kg i.p. daily for 14 days, then 50 mg/kg daily for 1x7 days; tumors weighed 43 days after inoculation
# Experimental: as §1, with “Tumors were allowed to grow for 1-2 additional weeks after completion of the compound treatments.” left out, “Data was presented as mean values (±S.D.).” left out
# In vivo efficacy study of Compounds 1 and 4 in Mouse Xenograft Model (NSCLC A549) was examined. […] 43 days after the initial tumor inoculation, tumors were dissected from the mice of each group and their weights were measured using a scale. […]
# [1] = system: Hedgehog signaling pathway; assay: Quantitative RT-PCR of Hh pathway genes in xenograft tumors; format: in vivo, mouse; conditions: Melanoma tumor (MelJuso), pooled tumor from two mice
# Experimental: (§2) Total RNA was isolated using Qiagen RNeasy Mini Kit (Valencia, Calif.). Hybridization probes and primers (Table 1) were purchased from Applied Biosystems (ABI, Foster City, Calif.). cDNA synthesis and Taqman® PCR were performed according to the manufactures' protocols. The gene expression was assayed in triplicate in ABI 7300 Real-time PCR System. Samples were normalized to their housekeeping gene GAPDH and then calculated by using 2^−dct method.
# To examine whether Compounds 1, 2, 4, and 6 suppressed tumor growth through inhibition of the Hedgehog signaling pathway in vivo, expression of the key components and direct target genes of the Hh pathway (e.g. Gli1, Gli2, Gli3, HHIP and Cyclin D1) were analyzed by quantitative real-time RT-PCR using total RNA isolated from the xenograft tumors. GAPDH served as a control. This RT-PCR analysis was performed using a “pooled” tumor from two randomly selected mice of each group with reasonable size tumors. […] The results are shown in FIG. 4, where C is control and V is vehicle.
# Wnt signaling pathway = assay: Quantitative RT-PCR of canonical Wnt pathway genes in xenograft tumors; format: in vivo, mouse; conditions: Melanoma tumor, pooled tumor from two mice, compared to controls
# Experimental: as §2
# To examine whether Compounds 1, 2, 4, and 6 suppressed tumor growth through inhibition of the Wnt signaling pathway in vivo, expression of the key components and direct target genes of the Wnt pathway (e.g. Wnt2, Axin2, EGFR, and Cyclin D1) were analyzed by quantitative real-time RT-PCR using total RNA isolated from the xenograft tumors. GAPDH served as a control. This RT-PCR analysis was performed using a “pooled” tumor from two randomly selected mice of each group with reasonable size tumors. […] The results are shown in FIG. 4, where C is control and V is vehicle.
# [2] = Preliminary in vivo toxicity: leukocyte population and body weight after treatment; parameters: species or system mouse; conditions: for changes of leukocyte population: at completion of the in vivo studies; for loss of body weight: during the course of drug administration
# Experimental: as §1
# (§3) After the in vivo studies were completed, different organs were resected from mice. These organs included liver, lung, heart, kidney, intestines, ovary, brain, spleen, skin, and muscle. The specimens were fixed in 4% buffered formaldehyde, embedded in paraffin, sectioned, and histologically analyzed by hematoxylin and eosin (HE) staining. The HE stained slides were examined by a mouse pathologist for toxicity evidence from all the organs as compared with vehicle controls. In addition, leukocytes (WBC: white blood cell, NE: neutrophil, LY: lymphocyte, MO: monocyte, EO: eosinophil, BA: basophil) from each animal from all treatment groups were collected and leukocyte population was counted through a blood cell counter.
# (§4) As preliminary in vivo toxicity study of Compounds 1, 2, 4, and 6, it was examined if there were changes of leukocyte population and loss of body weight in the mice after the treatment. At the completion of the in vivo studies as described herein, leukocytes (WBC: white blood cell, NE: neutrophil, LY: lymphocyte, MO: monocyte, EO: eosinophil, BA: basophil) from each animal from all treatment groups were collected and leukocyte population was counted through a blood cell counter. Body weights of control groups (n=10) and the treated group (n=10) were measured using a scale during the course of drug administration. […] In an additional toxicity study, effect of different doses of compounds 4 and 6 on the body weight of mice was examined. The compounds were i.p. injected in the abdomens at 3 different doses: 25, 50, and 100 mg/kg body weight to mice (3 mice per dosing group) for 6 consecutive days.
# [3] = Histological (H&E) examination of mouse organs for toxicity; format: in vivo; conditions: i.p. two doses daily for 6 days; liver, spleen, kidney, heart
# Description: as §3
# To analyze toxicity of the Compounds 1, 2, 4, and 6 in vivo, each group (three mice) was i.p. injected with two doses of each Compound daily for 6 days, and then major mouse organs, such as liver, spleen, kidney, and heart were resected from the mice.
# [4] = Additional toxicity study: body weight at different doses; format: in vivo, mouse; conditions: i.p. 25, 50, and 100 mg/kg body weight for 6 consecutive days
# Experimental: Each dosing group contained 3 mice. The body weight of mice was measured using a scale. Results are the means±SD (error bars).
# as §4
# human NSCLC cell lines = assay: Combination treatment with chemotherapies, MTS proliferation assay, lung cancer cells; format: cell-based; conditions: 72 hours, Combination Index
# Description: (§5) Another assay for determining the number of viable cells in proliferation or cytotoxicity assays is the MTS assay, a colorimetric method. MTS assay reagents are commercially available (Promega Corp., Madison, Wis.). The reagent contains a tetrazolium compound [3-(4,5-dimethylthiazol-2-yl)-5-(3-carboxymethoxyphenyl)-2-(4-sulfophenyl)-2H-tetrazolium, inner salt; MTS] and an electron coupling reagent (phenazine ethosulfate; PES). PES has enhanced chemical stability, which allows it to be combined with MTS to form a stable solution. The MTS tetrazolium compound (Owen's reagent) is bioreduced by cells into a colored formazan product that is soluble in tissue culture medium. This conversion may be accomplished by NADPH or NADH produced by dehydrogenase enzymes in metabolically active cells. The quantity of formazan product as measured by the absorbance at 490 nm is directly proportional to the number of living cells in culture. Because the MTS formazan product is soluble in tissue culture medium, this assay requires fewer steps than procedures that use tetrazolium compounds such as MTT. The formazan product of MTT reduction is a crystalline precipitate that requires an additional step in the procedure to dissolve the crystals before recording absorbance readings at 570 nm.
# (§6) Combination treatments of the Compounds with several chemotherapies: erlotinib (Tarceva®), PI3K inhibitor LY294002, TGFβ inhibitor SB431542, and pemetrexed (Alimta®) were performed in human NSCLC and MM cell lines (FIGS. 12-17). In all experiments, NSCLC and MM cell lines were treated with different doses of each compound or combination for 72 hours, and MTS assays were performed to determine the cell proliferations. Combination Index (CI), calculated by CalcuSyn software (Biosoft, Cambridge, UK), was applied to describe the effect of the combination effects of two compounds, where CI<1 indicates Synergism, CI=1 indicates Additive effects, and CI>1 indicates Antagonism. Student's t-tests were applied for statistical analysis.
# [5] = system: human MM cell lines (mesothelioma cells); assay: Combination treatment with chemotherapies, MTS proliferation assay, mesothelioma cells; format: cell-based; conditions: 72 hours, Combination Index
# Description: as §5, §6
SMILES,tumor growth (melanoma MelJuso),tumor weight (FIG. 1) (melanoma MelJuso),tumor weight compared to the control group (mesothelioma MS-1),tumor weight compared to the control group (NSCLC A549),"Hh signaling (expression of Gli1, Gli2, Gli3, HHIP, Cyclin D1) [1]",expression of the key indicator of the canonical Wnt activation (Wnt signaling pathway),changes of leukocyte population [2],loss of body weight [2],toxicity in organs (H&E histology) [3],loss of body weight [4],combination effect with PI3K inhibitor LY294002 (human NSCLC cell lines),combination effect with TGFβ inhibitor SB431542 (human NSCLC cell lines),combination effect with PI3K inhibitor LY294002 [5],combination effect with pemetrexed (Alimta) [5]
"CC(C)(CO)CCCNC(=O)C1C(c2ccccc2)=NN(c2ccccc2)C1c1ccsc1 (stereo not drawn) [Compound 1, 1,3-diphenyl-5-thiophen-3-yl-4,5-dihydro-1H-pyrazole-4-carboxylic acid (5-hydroxy-4,4-dimethyl-pentyl)-amide]",dramatically suppressed,significantly decreased,decreased,decreased,inhibited,significantly down-regulated,No noticeable changes of leukocyte population,No noticeable changes of leukocyte population or loss of the body weight,No noticeable toxicity,,,,,
"O=C(NCc1ccc(O)cc1)C1C(c2ccccc2)=NN(c2ccccc2)C1c1ccccc1 (stereo not drawn) [Compound 2, 1,3,5-triphenyl-4,5-dihydro-1H-pyrazole-4-carboxylic acid 4-hydroxy-benzylamide]",dramatically suppressed,significantly decreased,,,inhibited,significantly down-regulated,No noticeable changes of leukocyte population,No noticeable changes of leukocyte population or loss of the body weight,No noticeable toxicity,,,,,
"CC(C)(CO)CCCNC(=O)C1C(c2ccc(F)cc2)=NN(c2ccccc2)C1c1cccc(F)c1 (stereo not drawn) [Compound 6, 3-(4-fluoro-phenyl)-5-(3-fluoro-phenyl)-1-phenyl-4,5-dihydro-1H-pyrazole-4-carboxylic acid (5-hydroxy-4,4-dimethyl-pentyl)-amide]",dramatically suppressed,significantly decreased,,,inhibited,,No noticeable changes of leukocyte population,No noticeable changes of leukocyte population or loss of the body weight,No noticeable toxicity,no noticeable loss of the body weight,synergy,synergy,synergy,synergy
